Calls of active or inactive are those of the source. The rule behind the calls is not given here.
Key:
[1] = yeast lifespan-shortening chemical project counter-assay, dose-response inhibition of growth under permissive conditions (AID 850); settings: Saccharomyces cerevisiae growth inhibition, permissive control, measured here: maximum growth inhibition, stronger effect = higher value;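 note: growth read as optical density after one day of incubation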
[2] = test system: Saccharomyces cerevisiae growth inhibition, permissive control; assay: as above

SMILES	inhibition ([1]; at 50 µM)	other results
O=C(N/N=C/c1sc2ccccc2c1O)c1cccc2ccccc12	93.6%	IC50 [2]: 15.2 µM
CCCCCC/C(C)=C1/SC(=S)NC1=O	–	inhibition ([1]; at 12.5 µM): 15.5%; IC50 [2]: > 100 µM (inactive)
O=c1[nH]c2ccccc2c2nc3ccccn3c12	–	inhibition ([1]; at 25 µM): 18.1%; IC50 [2]: > 100 µM (inactive)
CC(C)c1ccc(NC(=S)NCCc2c[nH]c3ccccc23)cc1	–	inhibition ([1]; at 3.125 µM): 20.3%; IC50 [2]: > 100 µM (inactive)
CCc1ccc(/C=C/C(=O)c2cc(Br)ccc(=O)c2O)cc1	83.6%	IC50 [2]: 13.3 µM
Cn1cccc1C(=O)Nc1nc(-c2ccccn2)cs1	97.9%	IC50 [2]: 22.5 µM
c1cc2c(cc1C1CCCCC1)c1c3n2CCCNC3CCC1 (stereo not drawn)	38.7%	–
Oc1cccc2ccc(Nc3ccccn3)nc12	99.4%	IC50 [2]: 12.5 µM
COc1ccc(OC)c(CCNC(=O)Cn2sc3nc(C)cc(C)c3c2=O)c1	–	inhibition ([1]; at 0.391 µM): 13%; IC50 [2]: > 100 µM (inactive)
CCc1ccc2c(c1)C1(NN=C(c3cccc4ccccc34)S1)C(=O)N2 (stereo not drawn)	32.3%	–
CCCCCC1CCC(C(=O)O)CC1 (stereo not drawn)	51.8%	–
Cc1cc(C)c2c(N=NN3CCCCC3)[nH]nc2n1	–	inhibition ([1]; at 25 µM): 39.3%
CCOc1ccc(/C=C/[N+](=O)[O-])c2ccccc12	33.5%	–
COc1cc(/C=C2/C(=O)ON=C2c2ccccc2)ccc1O	45.6%	–
CC(=O)c1c(C)oc2c1C(=O)c1ccccc1C2=O	39.7%	–
Cn1c(=O)c2nc(-c3ccccc3)oc2c2ccccc21	38.2%	–
COc1cccc(/C=N/N2C(=O)CSC2=S)c1O	34.1%	–
Cc1nn(-c2ccccc2)c2sc(-c3n[nH]c(=S)o3)cc12	36.1%	–
O=C1CN(CC(=O)N2CCCCC2)c2ccccc2O1	37.7%	–
Cc1cc2sc(C(=O)O)c(C)c2s1	57.7%	–
Cc1ccc(N=Nc2ccc(O)c3ncccc23)cc1	30.3%	–
Cc1onc(-c2ccccc2)c1C(=O)NC(=S)NNC(=O)c1ccc(O)cc1O	–	inhibition ([1]; at 12.5 µM): 44.7%

SMILES	inhibition ([1]; at 50 µM)	other results
Cc1cccc(Cn2ncc(Cl)c(Cl)c2=O)c1	31.1%	–
COC(=O)c1ccc2c(c1O)C(=O)c1ccccc1C2=O	57.6%	–
Oc1ccccc1NCC(O)Cn1ccc2ccccc21 (stereo not drawn)	30.2%	–
COc1ccc(-n2c(Cc3cccn3C)nnc2SCC(=O)N2CCCC2)cc1	–	inhibition ([1]; at 12.5 µM): 37.7%
CCCOC(=O)c1ccc(Oc2cn[nH]c2-c2ccc(OCC)cc2O)cc1	–	inhibition ([1]; at 3.125 µM): 34.6%
O=[N+]([O-])c1ccc(N=Nc2ccc(O)cc2O)cc1	36.3%	–
O=c1c2ccccc2nc2sc3ccccc3n12	38.4%	–
C=CCSC(=C(C#N)C#N)c1cc2c([nH]1)CCCC2	32.9%	–
CCOc1ccc(NCc2nc3ccccc3n2CCOc2ccccc2)cc1	30.3%	–
O=c1c2c([N+](=O)[O-])cc([N+](=O)[O-])cc2sn1-c1ccc(Br)cc1	–	inhibition ([1]; at 25 µM): 36.1%
Cc1c2cc(O)c(=O)cc-2oc2cc(O)c(O)cc12	–	inhibition ([1]; at 25 µM): 39.9%
CCCOC(=O)c1ccc(Oc2cn[nH]c2-c2ccc(OC)cc2O)cc1	32.4%	–
O=C(N/N=C1\CC2CC=CC12)c1ccc(COc2ccccc2)cc1 (stereo not drawn)	35.1%	–
COc1ccc(N/N=C(\C#N)C(N)=O)cc1	–	inhibition ([1]; at 25 µM): 36.4%
O=S(=O)(Nc1ccc(-c2nc3ccccc3o2)cc1)c1ccccc1	30.1%	–
NNC(=O)c1cccc(COc2ccc(Br)cc2)c1	54.5%	–
CC(=O)N1N=C(c2ccc(Cl)cc2)OC1(C)C	–	inhibition ([1]; at 3.125 µM): 41%
O=C(c1c[nH]c(C(=O)C(Cl)(Cl)Cl)c1)c1ccccc1Cl	–	inhibition ([1]; at 25 µM): 46.3%
O=C(Cc1cccs1)NNC(=S)NC(=O)c1ccccc1	–	inhibition ([1]; at 25 µM): 41%
O=C(CCCSc1ccccc1)Nc1nc(-c2ccccn2)cs1	39%	–
CCOC(=O)c1cnc(-n2nc(C)cc2C)nc1NNc1cc(C)nc(-c2ccccc2)n1	48.1%	–
CCCCn1c(=O)c(C(=O)NCc2ccncc2)c(O)c2ccccc21	41.3%	–

SMILES	inhibition ([1]; at 50 µM)	other results
Cc1ccc2nc(-c3ccc(NS(=O)(=O)c4ccc(F)cc4)cc3)sc2c1	42.9%	–
O=C(NC(Nc1nc2ccc([N+](=O)[O-])cc2s1)(C(F)(F)F)C(F)(F)F)c1ccccc1	34.1%	–
Cc1nn(-c2ccccc2)c2sc(C(=O)O)cc12	41.3%	–
Cc1cc(N2CCN(C(=O)c3ccco3)CC2)n2ncc(-c3ccccc3)c2n1	51.7%	–
O=c1c2cccc3c2c(nn1CN1CCOCC1)-c1ccccc1-3	47.5%	–
Cc1ccc(C(=O)/C=C/c2cn(CN3CCN(C)CC3)c3ccccc23)cc1	34.5%	–
Cc1ccc(O)c(C(=O)CC(=O)c2cccc(F)c2)c1	44.8%	–
Cc1ccc(N2CCOCC2)c2c1C(=O)c1ccccc1C2=O	32.3%	–
OCc1ccc(O)c2ncccc12	33.1%	–
CC(C)N=c1scc(-c2ccco2)n1/N=C/c1ccc(O)c(O)c1	36.7%	–
CCc1cc2c(cc(C(=O)O)n2C)s1	–	inhibition ([1]; at 25 µM): 48.3%
Cc1cc(C)c2c(N=NN(C)C)[nH]nc2n1	–	inhibition ([1]; at 25 µM): 35.6%
O=c1cccc2n1Cc1cc3ccccc3nc1-2	32.4%	–
O=C(O)Cc1cc(I)c(Oc2ccc(O)c(I)c2)c(I)c1	38.6%	–
Cn1c2ccccc2c(=O)n2c(=O)c3ccccc3cc12	–	inhibition ([1]; at 12.5 µM): 30.2%
N#CCSc1nc2ccccc2c2nc3ccccc3n12	–	inhibition ([1]; at 25 µM): 39.2%
CC1CCc2c(sc3nc(CN4CCOCC4)nc(Sc4ccccc4)c23)C1 (stereo not drawn)	33.9%	–
O=Nc1c2nc3ccccc3n(O)c-2c2ccccc12	37.8%	–
Cc1cc2c(cc(C(=O)O)n2C)s1	34.3%	–
Cc1cc(OCc2ccc(C(=O)NN=C3CCCC3)cc2)ccc1Cl	54.2%	–
O=C(O)c1cc2c(ccc3ccccc32)oc1=O	38.3%	–
O=C1c2ccccc2C(=O)C1c1ccc2ccccc2n1	–	inhibition ([1]; at 25 µM): 30.6%

SMILES	inhibition ([1]; at 50 µM)	other results
OCCN(CCO)CC(O)COc1ccc(C23CC4CC(CC(C4)C2)C3)cc1 (stereo not drawn)	–	inhibition ([1]; at 25 µM): 35.6%
CN1CCN(Cc2cc(COCc3ccccc3)c3cccnc3c2O)CC1	51.7%	–
Cc1ccc2nc(-c3ccc(NS(=O)(=O)c4ccc(F)c(F)c4)cc3)sc2c1	–	inhibition ([1]; at 12.5 µM): 39.1%
O=C(CN1CCN(c2ncc(C(F)(F)F)cc2Cl)CC1)NCCNc1ncc(C(F)(F)F)cc1Cl	38.3%	–
Nc1cccc2nc3ccccc3cc12	–	inhibition ([1]; at 25 µM): 38.6%
COc1ccc(NCc2ccc([N+](=O)[O-])s2)c(OC)c1	43.9%	–
Oc1c(Cl)cc(Cl)cc1Sc1cc(Cl)cc(Cl)c1O	–	inhibition ([1]; at 25 µM): 40.3%
COc1ccc2[nH]c3c(Cl)ncnc3c2c1	35.5%	–
CCOc1cc(CNCCO)cc(Br)c1OCc1ccc(Cl)cc1Cl	46.1%	–
COc1ccc2nc(NC(=S)N(C)C)sc2c1	–	inhibition ([1]; at 12.5 µM): 35%
Cc1cccc(OCCCOc2cccc3cccnc23)c1C	33.1%	–
CCCCc1ccc(NS(=O)(=O)c2cccs2)cc1	34.1%	–
O=[N+]([O-])c1ccc(C2Oc3ccccc3C3CC(c4ccccc4)=NN32)s1 (stereo not drawn)	45%	–
O=C(OCn1ncc(Cl)c(Cl)c1=O)c1ccccc1Cl	54.5%	–
CS(=O)(=O)N1CCN(C(=O)c2ccccc2F)CC1	–	inhibition ([1]; at 3.125 µM): 34.8%
N/C(=N\OC(=O)c1ccc(Cl)cc1Cl)c1ccccc1	–	inhibition ([1]; at 12.5 µM): 32.3%
c1ccc(-c2ccc(-c3ccccn3)nn2)nc1	36.1%	–
Clc1ccc2nnnc(-c3ccccc3)c2c1	37.5%	–
O=S(=O)(Nc1ccc(-c2csc(-c3ccccc3)n2)cc1)c1ccc(F)cc1	–	inhibition ([1]; at 3.125 µM): 34.3%

— PubChem BioAssay AID850 (SRMLSC, 2007)
